According to PMC8333062, “Chemical tools for epichaperome-mediated interactome dysfunctions of the central nervous system” (Nature Communications, 2021):
Read-outs that look alike come from different tables or passages of the source.

Legend:
Assay in all cases: scanEDGE off-target screen
Assay type in all cases: binding
97 kinases [1] = molecular target: T1, 97 kinases (Homo sapiens, UniProt P07949); conditions: read-out: %Ctrl RET
T1 construct: purchased Ambit Biosciences (scanEDGE / KINOMEscan) scanEDGE 97 kinase panel; host or cells: T7 phage in E. coli BL21-derived host; remaining kinases in HEK-293 cells

97 kinases [2] = molecular target: T2, 97 kinases (Homo sapiens, UniProt P27448); conditions: read-out: %Ctrl MARK3
T2 construct: purchased Ambit Biosciences (scanEDGE / KINOMEscan) scanEDGE 97 kinase panel; host or cells: T7 phage in E. coli BL21-derived host; remaining kinases in HEK-293 cells

97 kinases [3] = molecular target: T3, 97 kinases (Homo sapiens, UniProt P29317); conditions: read-out: %Ctrl EPHA2
T3 construct: purchased Ambit Biosciences (scanEDGE / KINOMEscan) scanEDGE 97 kinase panel; host or cells: T7 phage in E. coli BL21-derived host; remaining kinases in HEK-293 cells

97 kinases [4] = molecular target: T4, 97 kinases (Homo sapiens, UniProt Q13177); conditions: read-out: %Ctrl PAK2
T4 construct: purchased Ambit Biosciences (scanEDGE / KINOMEscan) scanEDGE 97 kinase panel; host or cells: T7 phage in E. coli BL21-derived host; remaining kinases in HEK-293 cells

97 kinases [5] = molecular target: T5, 97 kinases (Homo sapiens, UniProt P51812); conditions: read-out: %Ctrl RSK2(Kin.Dom.1-N-terminal)
T5 construct: purchased Ambit Biosciences (scanEDGE / KINOMEscan) scanEDGE 97 kinase panel; host or cells: T7 phage in E. coli BL21-derived host; remaining kinases in HEK-293 cells

97 kinases [6] = molecular target: T6, 97 kinases (Homo sapiens, UniProt Q02763); conditions: read-out: %Ctrl TIE2
T6 construct: purchased Ambit Biosciences (scanEDGE / KINOMEscan) scanEDGE 97 kinase panel; host or cells: T7 phage in E. coli BL21-derived host; remaining kinases in HEK-293 cells

97 kinases [7] = molecular target: T7, 97 kinases (Homo sapiens, UniProt P12931); conditions: read-out: %Ctrl SRC
T7 construct: purchased Ambit Biosciences (scanEDGE / KINOMEscan) scanEDGE 97 kinase panel; host or cells: T7 phage in E. coli BL21-derived host; remaining kinases in HEK-293 cells

97 kinases [8] = molecular target: T8, 97 kinases (Homo sapiens, UniProt P31749); conditions: read-out: %Ctrl AKT1
T8 construct: purchased Ambit Biosciences (scanEDGE / KINOMEscan) scanEDGE 97 kinase panel; host or cells: T7 phage in E. coli BL21-derived host; remaining kinases in HEK-293 cells

97 kinases [9] = molecular target: T9, 97 kinases (Homo sapiens, UniProt Q02750); conditions: read-out: %Ctrl MEK1
T9 construct: purchased Ambit Biosciences (scanEDGE / KINOMEscan) scanEDGE 97 kinase panel; host or cells: T7 phage in E. coli BL21-derived host; remaining kinases in HEK-293 cells

97 kinases [10] = molecular target: T10, 97 kinases (Homo sapiens, UniProt P35968); conditions: read-out: %Ctrl VEGFR2
T10 construct: purchased Ambit Biosciences (scanEDGE / KINOMEscan) scanEDGE 97 kinase panel; host or cells: T7 phage in E. coli BL21-derived host; remaining kinases in HEK-293 cells

97 kinases [11] = molecular target: T11, 97 kinases (Homo sapiens, UniProt P49137); conditions: read-out: %Ctrl MAPKAPK2
T11 construct: purchased Ambit Biosciences (scanEDGE / KINOMEscan) scanEDGE 97 kinase panel; host or cells: T7 phage in E. coli BL21-derived host; remaining kinases in HEK-293 cells

97 kinases [12] = molecular target: T12, 97 kinases (Homo sapiens, UniProt P00519)
T12 construct: purchased Ambit Biosciences (scanEDGE / KINOMEscan) scanEDGE 97 kinase panel; host or cells: T7 phage in E. coli BL21-derived host; remaining kinases in HEK-293 cells

97 kinases [13] = molecular target: T13, 97 kinases (Homo sapiens, UniProt O60674); conditions: read-out: %Ctrl JAK2(JH1domain-catalytic)
T13 construct: purchased Ambit Biosciences (scanEDGE / KINOMEscan) scanEDGE 97 kinase panel; host or cells: T7 phage in E. coli BL21-derived host; remaining kinases in HEK-293 cells

97 kinases [14] = molecular target: T14, 97 kinases (Homo sapiens, UniProt Q9UM73); conditions: read-out: %Ctrl ALK
T14 construct: purchased Ambit Biosciences (scanEDGE / KINOMEscan) scanEDGE 97 kinase panel; host or cells: T7 phage in E. coli BL21-derived host; remaining kinases in HEK-293 cells

97 kinases [15] = molecular target: T15, 97 kinases (Homo sapiens, UniProt P49841); conditions: read-out: %Ctrl GSK3B
T15 construct: purchased Ambit Biosciences (scanEDGE / KINOMEscan) scanEDGE 97 kinase panel; host or cells: T7 phage in E. coli BL21-derived host; remaining kinases in HEK-293 cells

97 kinases [16] = molecular target: T16, 97 kinases (Homo sapiens, UniProt Q9BVS4); conditions: read-out: %Ctrl RIOK2
T16 construct: purchased Ambit Biosciences (scanEDGE / KINOMEscan) scanEDGE 97 kinase panel; host or cells: T7 phage in E. coli BL21-derived host; remaining kinases in HEK-293 cells

97 kinases [17] = molecular target: T17, 97 kinases (Homo sapiens, UniProt P08069); conditions: read-out: %Ctrl IGF1R
T17 construct: purchased Ambit Biosciences (scanEDGE / KINOMEscan) scanEDGE 97 kinase panel; host or cells: T7 phage in E. coli BL21-derived host; remaining kinases in HEK-293 cells

97 kinases [18] = molecular target: T18, 97 kinases (Homo sapiens, UniProt P09619); conditions: read-out: %Ctrl PDGFRB
T18 construct: purchased Ambit Biosciences (scanEDGE / KINOMEscan) scanEDGE 97 kinase panel; host or cells: T7 phage in E. coli BL21-derived host; remaining kinases in HEK-293 cells

97 kinases [19] = molecular target: T19, 97 kinases (Homo sapiens, UniProt P52333); conditions: read-out: %Ctrl JAK3(JH1domain-catalytic)
T19 construct: purchased Ambit Biosciences (scanEDGE / KINOMEscan) scanEDGE 97 kinase panel; host or cells: T7 phage in E. coli BL21-derived host; remaining kinases in HEK-293 cells

97 kinases [20] = molecular target: T20, 97 kinases (Homo sapiens, UniProt Q05397); conditions: read-out: %Ctrl FAK
T20 construct: purchased Ambit Biosciences (scanEDGE / KINOMEscan) scanEDGE 97 kinase panel; host or cells: T7 phage in E. coli BL21-derived host; remaining kinases in HEK-293 cells

97 kinases [21] = molecular target: T21, 97 kinases (Homo sapiens, UniProt Q15303); conditions: read-out: %Ctrl ERBB4
T21 construct: purchased Ambit Biosciences (scanEDGE / KINOMEscan) scanEDGE 97 kinase panel; host or cells: T7 phage in E. coli BL21-derived host; remaining kinases in HEK-293 cells

97 kinases [22] = molecular target: T22, 97 kinases (Homo sapiens, UniProt P50613); conditions: read-out: %Ctrl CDK7
T22 construct: purchased Ambit Biosciences (scanEDGE / KINOMEscan) scanEDGE 97 kinase panel; host or cells: T7 phage in E. coli BL21-derived host; remaining kinases in HEK-293 cells

97 kinases [23] = molecular target: T23, 97 kinases (Homo sapiens, UniProt Q06187); conditions: read-out: %Ctrl BTK
T23 construct: purchased Ambit Biosciences (scanEDGE / KINOMEscan) scanEDGE 97 kinase panel; host or cells: T7 phage in E. coli BL21-derived host; remaining kinases in HEK-293 cells

97 kinases [24] = molecular target: T24, 97 kinases (Homo sapiens, UniProt Q9BUB5); conditions: read-out: %Ctrl MKNK1
T24 construct: purchased Ambit Biosciences (scanEDGE / KINOMEscan) scanEDGE 97 kinase panel; host or cells: T7 phage in E. coli BL21-derived host; remaining kinases in HEK-293 cells

T12 sequence (P00519 whole entry): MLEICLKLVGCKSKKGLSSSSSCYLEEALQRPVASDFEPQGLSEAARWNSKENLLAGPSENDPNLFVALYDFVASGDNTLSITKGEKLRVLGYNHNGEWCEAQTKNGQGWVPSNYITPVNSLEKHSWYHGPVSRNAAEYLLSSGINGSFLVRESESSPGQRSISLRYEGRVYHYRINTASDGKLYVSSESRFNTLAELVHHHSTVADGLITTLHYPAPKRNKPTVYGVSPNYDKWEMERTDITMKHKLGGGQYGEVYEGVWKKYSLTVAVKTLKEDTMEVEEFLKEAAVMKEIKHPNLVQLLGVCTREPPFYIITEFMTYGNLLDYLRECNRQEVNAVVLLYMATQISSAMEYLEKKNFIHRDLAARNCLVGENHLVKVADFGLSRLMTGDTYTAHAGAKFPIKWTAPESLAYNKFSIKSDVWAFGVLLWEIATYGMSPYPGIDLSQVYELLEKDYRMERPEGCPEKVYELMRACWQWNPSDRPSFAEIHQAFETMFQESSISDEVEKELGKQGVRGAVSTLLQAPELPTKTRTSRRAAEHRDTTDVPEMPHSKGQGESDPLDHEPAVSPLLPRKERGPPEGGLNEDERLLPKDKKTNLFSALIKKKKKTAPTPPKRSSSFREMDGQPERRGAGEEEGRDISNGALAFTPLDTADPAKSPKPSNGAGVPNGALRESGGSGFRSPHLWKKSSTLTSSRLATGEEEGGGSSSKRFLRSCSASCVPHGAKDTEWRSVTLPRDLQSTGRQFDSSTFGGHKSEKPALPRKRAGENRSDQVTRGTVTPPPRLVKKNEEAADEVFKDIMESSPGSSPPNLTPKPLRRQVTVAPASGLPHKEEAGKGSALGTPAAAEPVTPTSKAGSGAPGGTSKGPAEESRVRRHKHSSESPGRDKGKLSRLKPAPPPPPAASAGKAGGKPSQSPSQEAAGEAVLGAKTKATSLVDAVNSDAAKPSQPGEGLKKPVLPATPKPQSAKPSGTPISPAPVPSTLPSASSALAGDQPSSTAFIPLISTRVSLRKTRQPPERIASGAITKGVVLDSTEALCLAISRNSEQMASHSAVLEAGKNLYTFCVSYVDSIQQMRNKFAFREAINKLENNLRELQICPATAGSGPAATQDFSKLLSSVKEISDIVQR
T6 sequence (Q02763 23-1124): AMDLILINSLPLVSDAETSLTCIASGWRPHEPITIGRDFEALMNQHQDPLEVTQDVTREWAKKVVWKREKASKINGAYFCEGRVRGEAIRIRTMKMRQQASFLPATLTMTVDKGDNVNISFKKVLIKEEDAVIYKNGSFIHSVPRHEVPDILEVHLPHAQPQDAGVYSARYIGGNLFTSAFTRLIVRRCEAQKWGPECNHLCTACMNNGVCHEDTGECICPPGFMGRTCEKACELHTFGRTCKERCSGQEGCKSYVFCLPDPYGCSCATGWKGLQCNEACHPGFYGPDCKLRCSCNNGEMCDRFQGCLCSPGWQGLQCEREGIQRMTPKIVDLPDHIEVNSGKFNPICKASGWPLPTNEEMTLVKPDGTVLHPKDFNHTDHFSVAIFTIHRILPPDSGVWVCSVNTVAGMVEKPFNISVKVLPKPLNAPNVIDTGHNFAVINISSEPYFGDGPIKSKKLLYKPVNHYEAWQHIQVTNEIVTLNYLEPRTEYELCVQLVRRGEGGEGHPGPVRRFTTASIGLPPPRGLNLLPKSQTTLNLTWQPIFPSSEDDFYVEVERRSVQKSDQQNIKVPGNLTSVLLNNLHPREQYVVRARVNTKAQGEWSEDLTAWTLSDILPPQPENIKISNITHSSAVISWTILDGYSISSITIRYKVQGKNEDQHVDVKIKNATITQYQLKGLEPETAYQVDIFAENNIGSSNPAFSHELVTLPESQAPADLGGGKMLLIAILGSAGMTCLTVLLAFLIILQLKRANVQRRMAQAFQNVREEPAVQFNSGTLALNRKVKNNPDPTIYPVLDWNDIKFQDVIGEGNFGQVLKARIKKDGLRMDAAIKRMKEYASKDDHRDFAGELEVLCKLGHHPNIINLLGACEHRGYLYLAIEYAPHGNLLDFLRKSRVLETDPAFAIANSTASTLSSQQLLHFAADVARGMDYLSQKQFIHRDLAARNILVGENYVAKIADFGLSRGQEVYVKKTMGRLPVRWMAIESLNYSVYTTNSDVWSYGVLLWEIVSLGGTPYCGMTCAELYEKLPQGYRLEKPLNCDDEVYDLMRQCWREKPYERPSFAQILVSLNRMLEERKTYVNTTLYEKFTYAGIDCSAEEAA
T4 sequence (Q13177 whole entry): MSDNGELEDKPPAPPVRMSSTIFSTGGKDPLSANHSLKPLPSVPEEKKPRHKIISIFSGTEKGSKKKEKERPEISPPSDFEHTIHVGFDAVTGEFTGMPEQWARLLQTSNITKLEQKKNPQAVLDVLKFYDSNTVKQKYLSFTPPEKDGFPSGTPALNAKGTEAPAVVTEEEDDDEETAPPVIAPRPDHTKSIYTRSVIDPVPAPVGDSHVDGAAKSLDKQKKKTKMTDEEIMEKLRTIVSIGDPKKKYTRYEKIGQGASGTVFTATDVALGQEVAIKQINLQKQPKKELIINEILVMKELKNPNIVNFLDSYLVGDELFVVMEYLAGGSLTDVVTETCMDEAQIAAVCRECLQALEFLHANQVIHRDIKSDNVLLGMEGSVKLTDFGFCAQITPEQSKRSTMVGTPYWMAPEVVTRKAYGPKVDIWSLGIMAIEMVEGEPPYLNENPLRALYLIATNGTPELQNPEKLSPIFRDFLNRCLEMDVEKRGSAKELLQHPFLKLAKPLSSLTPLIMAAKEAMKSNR
T8 sequence (P31749 whole entry): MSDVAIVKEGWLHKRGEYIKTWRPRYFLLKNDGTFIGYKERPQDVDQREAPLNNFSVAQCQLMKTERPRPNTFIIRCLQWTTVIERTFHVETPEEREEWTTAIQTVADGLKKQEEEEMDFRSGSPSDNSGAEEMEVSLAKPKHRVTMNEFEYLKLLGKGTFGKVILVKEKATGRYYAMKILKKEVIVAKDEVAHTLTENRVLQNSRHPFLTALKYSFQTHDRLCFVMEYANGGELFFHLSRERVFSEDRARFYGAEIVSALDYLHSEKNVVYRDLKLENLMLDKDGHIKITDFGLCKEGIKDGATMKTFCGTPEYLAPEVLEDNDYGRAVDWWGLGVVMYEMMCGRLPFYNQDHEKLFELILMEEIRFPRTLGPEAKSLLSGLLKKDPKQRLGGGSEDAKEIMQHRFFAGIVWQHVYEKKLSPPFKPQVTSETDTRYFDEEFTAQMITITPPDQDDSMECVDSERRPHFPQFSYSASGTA
T11 sequence (P49137 whole entry): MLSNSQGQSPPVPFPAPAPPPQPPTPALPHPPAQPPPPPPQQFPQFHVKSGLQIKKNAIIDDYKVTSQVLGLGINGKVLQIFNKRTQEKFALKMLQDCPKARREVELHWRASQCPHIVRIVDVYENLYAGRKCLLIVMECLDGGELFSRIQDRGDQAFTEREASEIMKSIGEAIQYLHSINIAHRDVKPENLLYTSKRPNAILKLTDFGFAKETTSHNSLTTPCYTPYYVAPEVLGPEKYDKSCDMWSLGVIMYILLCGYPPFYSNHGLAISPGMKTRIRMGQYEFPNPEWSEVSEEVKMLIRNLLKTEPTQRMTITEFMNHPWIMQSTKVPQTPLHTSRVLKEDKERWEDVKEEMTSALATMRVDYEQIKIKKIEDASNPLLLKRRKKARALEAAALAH
T10 sequence (P35968 20-1356): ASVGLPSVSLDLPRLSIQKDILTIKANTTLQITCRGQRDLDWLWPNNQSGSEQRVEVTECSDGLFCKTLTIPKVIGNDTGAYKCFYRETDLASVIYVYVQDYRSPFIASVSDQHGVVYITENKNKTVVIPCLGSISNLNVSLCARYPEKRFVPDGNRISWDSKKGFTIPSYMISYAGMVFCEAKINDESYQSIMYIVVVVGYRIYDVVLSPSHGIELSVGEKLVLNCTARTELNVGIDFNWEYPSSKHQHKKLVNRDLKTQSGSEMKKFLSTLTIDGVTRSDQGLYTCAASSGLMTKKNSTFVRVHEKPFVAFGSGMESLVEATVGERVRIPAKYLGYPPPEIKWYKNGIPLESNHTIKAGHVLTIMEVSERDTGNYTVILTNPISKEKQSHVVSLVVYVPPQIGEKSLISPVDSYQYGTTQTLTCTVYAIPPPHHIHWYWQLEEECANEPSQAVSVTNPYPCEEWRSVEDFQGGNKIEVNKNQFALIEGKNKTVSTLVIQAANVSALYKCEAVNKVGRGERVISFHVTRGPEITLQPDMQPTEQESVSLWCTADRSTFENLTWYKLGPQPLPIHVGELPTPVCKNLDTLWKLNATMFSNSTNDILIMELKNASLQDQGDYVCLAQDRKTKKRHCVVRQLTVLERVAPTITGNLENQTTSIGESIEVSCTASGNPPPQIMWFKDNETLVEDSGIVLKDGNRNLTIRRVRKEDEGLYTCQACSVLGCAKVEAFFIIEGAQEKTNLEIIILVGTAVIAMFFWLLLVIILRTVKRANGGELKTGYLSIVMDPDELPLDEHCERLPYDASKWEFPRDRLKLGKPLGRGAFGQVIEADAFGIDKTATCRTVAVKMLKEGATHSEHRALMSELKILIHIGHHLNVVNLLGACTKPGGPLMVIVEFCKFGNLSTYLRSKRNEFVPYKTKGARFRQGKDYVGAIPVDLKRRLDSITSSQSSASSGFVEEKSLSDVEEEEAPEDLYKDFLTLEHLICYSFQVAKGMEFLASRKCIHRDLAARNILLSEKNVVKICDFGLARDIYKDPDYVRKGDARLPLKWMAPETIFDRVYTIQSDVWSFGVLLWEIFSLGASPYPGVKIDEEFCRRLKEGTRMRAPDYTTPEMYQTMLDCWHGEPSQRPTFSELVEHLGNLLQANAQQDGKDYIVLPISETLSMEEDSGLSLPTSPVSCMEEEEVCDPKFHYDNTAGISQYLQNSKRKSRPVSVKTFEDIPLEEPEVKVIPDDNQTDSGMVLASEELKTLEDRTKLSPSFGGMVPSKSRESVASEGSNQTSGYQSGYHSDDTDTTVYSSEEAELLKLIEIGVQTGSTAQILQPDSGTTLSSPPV

Structure (SMILES): CC(C)(C)CNCCn1c(Sc2cc3c(cc2I)OCO3)nc2c(N)ncnc21 [Compound 85]
- remaining binding at 10 µM (97 kinases [1]): 100%
- remaining binding at 10 µM (97 kinases [2]): 100%
- remaining binding at 10 µM (97 kinases [3]): 91%
- remaining binding at 10 µM (97 kinases [4]): 97%
- remaining binding at 10 µM (97 kinases [5]): 84%
- remaining binding at 10 µM (97 kinases [6]): 100%
- remaining binding at 10 µM (97 kinases [7]): 100%
- remaining binding at 10 µM (97 kinases [8]): 93%
- remaining binding at 10 µM (97 kinases [9]): 99%
- remaining binding at 10 µM (97 kinases [10]): 98%
- remaining binding at 10 µM (97 kinases [11]): 96%
- remaining binding at 10 µM (97 kinases [12]; read-out: %Ctrl ABL1-nonphosphorylated): 50%
- remaining binding at 10 µM (97 kinases [12]; read-out: %Ctrl ABL1-phosphorylated): 70%
- remaining binding at 10 µM (97 kinases [13]): 100%
- remaining binding at 10 µM (97 kinases [14]): 93%
- remaining binding at 10 µM (97 kinases [15]): 88%
- remaining binding at 10 µM (97 kinases [16]): 94%
- remaining binding at 10 µM (97 kinases [17]): 100%
- remaining binding at 10 µM (97 kinases [18]): 98%
- remaining binding at 10 µM (97 kinases [19]): 86%
- remaining binding at 10 µM (97 kinases [20]): 96%
- remaining binding at 10 µM (97 kinases [21]): 100%
- remaining binding at 10 µM (97 kinases [22]): 79%
- remaining binding at 10 µM (97 kinases [23]): 100%
- remaining binding at 10 µM (97 kinases [24]): 100%
